Source: patent US11407768B2, “AMPK activators” (Kallyope, Inc., priority 2020, dated 2022)

The compounds below were run against Recombinant AMPK α1/β1/γ1 complex (Homo sapiens (Human), UniProt Q13131+Q9Y478) (assay: In vitro pAMPK1 kinase activation assay (ADP-Glo, SAMS peptide)). Conditions: AMPK α1/β1/γ1 pre-activated with CAMKK2; 12-point curve; 15 min compound incubation.
Type: biochemical
Description: Compound effect on AMPK enzyme activation was determined in a cell-free format with a 12-point concentration curve. The ADP-Glo detection system was used to determine phosphorylation of a SAMS peptide substrate. Recombinant AMPK α1/β1/γ1 complex was pre-activated by phosphorylation with CAMKK2 followed by incubated with compound for 15 minutes prior to the SAMS phosphorylation reaction. Activity curves and EC50 values were fitted by interpolation to an ATP:ADP standard curve as indicated by the ADP-Glo manufacturer using Prism software.

Chain of Recombinant AMPK α1/β1/γ1 complex (Q13131 whole entry): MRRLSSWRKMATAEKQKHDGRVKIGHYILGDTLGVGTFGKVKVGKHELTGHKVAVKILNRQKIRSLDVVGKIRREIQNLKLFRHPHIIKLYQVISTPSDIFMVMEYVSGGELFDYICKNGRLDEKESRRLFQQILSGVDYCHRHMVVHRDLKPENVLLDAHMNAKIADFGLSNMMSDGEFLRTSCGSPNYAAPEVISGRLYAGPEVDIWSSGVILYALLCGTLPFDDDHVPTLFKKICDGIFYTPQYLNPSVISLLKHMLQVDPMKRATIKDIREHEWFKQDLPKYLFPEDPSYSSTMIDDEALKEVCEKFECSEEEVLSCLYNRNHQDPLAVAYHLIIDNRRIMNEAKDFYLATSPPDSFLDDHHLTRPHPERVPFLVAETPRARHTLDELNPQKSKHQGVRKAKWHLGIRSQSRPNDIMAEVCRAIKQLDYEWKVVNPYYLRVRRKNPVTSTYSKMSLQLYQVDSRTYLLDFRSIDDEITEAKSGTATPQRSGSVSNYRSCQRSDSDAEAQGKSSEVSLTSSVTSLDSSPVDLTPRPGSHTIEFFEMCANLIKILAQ
Chain of Recombinant AMPK α1/β1/γ1 complex (Q9Y478 whole entry): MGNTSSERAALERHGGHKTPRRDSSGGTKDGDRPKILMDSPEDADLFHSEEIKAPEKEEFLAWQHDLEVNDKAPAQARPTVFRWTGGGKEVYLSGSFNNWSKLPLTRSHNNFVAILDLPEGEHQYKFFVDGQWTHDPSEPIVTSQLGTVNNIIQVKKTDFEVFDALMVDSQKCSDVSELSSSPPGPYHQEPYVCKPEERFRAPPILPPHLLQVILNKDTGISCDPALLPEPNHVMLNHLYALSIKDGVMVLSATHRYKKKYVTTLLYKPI
Chain of Recombinant AMPK α1/β1/γ1 complex (P54619 whole entry partner): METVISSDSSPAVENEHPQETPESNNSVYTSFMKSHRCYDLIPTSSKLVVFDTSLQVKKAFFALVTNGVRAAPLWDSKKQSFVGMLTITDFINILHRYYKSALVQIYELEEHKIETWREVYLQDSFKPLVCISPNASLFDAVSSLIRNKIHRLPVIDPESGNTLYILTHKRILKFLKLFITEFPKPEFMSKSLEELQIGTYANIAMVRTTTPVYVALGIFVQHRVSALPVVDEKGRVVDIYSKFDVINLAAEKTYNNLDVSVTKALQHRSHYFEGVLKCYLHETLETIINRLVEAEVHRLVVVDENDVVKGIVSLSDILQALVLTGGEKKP

SMILES	EC50
O=C(O)C(O)CNCc1ccc(-c2ccc(-c3nc4nc(O[C@@H]5CO[C@H]6[C@@H]5OC[C@H]6O)[nH]c4cc3Cl)cc2)cc1 (stereo partly drawn) [Compound 22, 3-(((4′-(6-chloro-2-(((3R,3aR,6R,6aR)-6-hydroxyhexahydrofuro[3,2-b]furan-3-yl)oxy)-1H-imidazo[4,5-b]pyridin-5-yl)-[1,1′-biphenyl]-4-yl)methyl)amino)-2-hydroxypropanoic acid]	0.63 nM
O=C(NCCS(=O)(=O)O)c1ccc(-c2ccc(-c3nc4nc(O[C@@H]5CO[C@H]6[C@@H]5OC[C@H]6O)[nH]c4cc3Cl)cc2)cc1 [Compound 5, 2-(4′-(6-chloro-2-(((3R,3aR,6R,6aR)-6-hydroxyhexahydrofuro[3,2-b]furan-3-yl)oxy)-1H-imidazo[4,5-b]pyridin-5-yl)-[1,1′-biphenyl]-4-ylcarboxamido)ethanesulfonic acid]	0.86 nM
O=S(=O)(NC[C@H](O)[C@@H](O)[C@H](O)[C@H](O)CO)c1ccc(-c2ccc(-c3nc4nc(O[C@@H]5CO[C@H]6[C@@H]5OC[C@H]6O)[nH]c4cc3Cl)cc2)cc1 [Compound 3, 4′-(6-chloro-2-(((3R,3aR,6R,6aR)-6-hydroxyhexahydrofuro[3,2-b]furan-3-yl)oxy)-1H-imidazo [4,5-b]pyridin-5-yl)-N-((2S,3R,4R,5R)-2,3,4,5,6-pentahydroxyhexyl)-[1,1′-biphenyl]-4-sulfonamide]	0.09 nM
OC[C@@H](O)[C@@H](O)[C@H](O)[C@@H](O)CNCc1ccc(-c2ccc(-c3cc4nc(O[C@@H]5CO[C@H]6[C@@H]5OC[C@H]6O)[nH]c4cc3Cl)cc2)cc1 [Compound 65, (2R,3R,4R,5S)-6-(((4′-(6-chloro-2-(((3R,3aR,6R,6aR)-6-hydroxyhexahydrofuro[3,2-b]furan-3-yl)oxy)-1H-benzo [d]imidazol-5-yl)-[1,1′-biphenyl]-4-yl)methyl)amino)hexane-1,2,3,4,5-pentaol]	0.77 nM
NCC1CN(Cc2ccc(-c3ccc(-c4cc5nc(O[C@@H]6CO[C@H]7[C@@H]6OC[C@H]7O)[nH]c5cc4Cl)cc3)cc2)C1 [Compound 67, (3R,3aR,6R,6aR)-6-((5-(4′-((3-(aminomethyl)azetidin-1-yl)methyl)-[1,1′-biphenyl]-4-yl)-6-chloro-1H-benzo[d]imidazol-2-yl)oxy)hexahydrofuro[3,2-b]furan-3-ol]	0.93 nM
OCC1(CO)CCN(Cc2ccc(-c3ccc(-c4nc5nc(O[C@@H]6CO[C@H]7[C@@H]6OC[C@H]7O)[nH]c5cc4Cl)cc3)cc2)CC1 [Compound 54, (1((4′-(6-chloro-2-(((3R,3aR,6R,6aR)-6-hydroxyhexahydrofuro[3,2-b]furan-3-yl)oxy)-1H-imidazo[4,5-b]pyridin-5-yl)-[1,1′-biphenyl]-4-yl)methyl)piperidine-4,4-diyl)dimethanol]	0.57 nM
CN(CCOCCO)Cc1ccc(-c2ccc(-c3cc4nc(O[C@@H]5CO[C@H]6[C@@H]5OC[C@H]6O)[nH]c4cc3Cl)cc2)cc1 [Compound 62, (3R,3aR,6R,6aR)-6-((6-chloro-5-(4′-(((2-(2-hydroxyethoxy)ethyl)(methyl)amino)methyl)-[1,1′-biphenyl]-4-yl)-1H-benzoldlimidazol-2-yl)oxy)hexahydrofuro[3,2-b]furan-3-ol]	1.3 nM
O=P(O)(O)c1ccc(-c2ccc(-c3nc4nc(O[C@@H]5CO[C@@H](CO)[C@@H]5O)[nH]c4cc3Cl)cc2)cc1 [Compound 68, (4′-(6-chloro-2-(((3R,4S,5S)-4-hydroxy-5-(hydroxymethyl)tetrahydrofuran-3-yl)oxy)-1H-imidazo[4,5-b]pyridin-5-yl)-[1,1′-biphenyl]-4-yl)phosphonic acid]	> 10000 nM
O=C(NC[C@H](O)[C@@H](O)[C@H](O)[C@H](O)CO)c1ccc(-c2ccc(-c3cc4nc(O[C@@H]5CO[C@H]6[C@@H]5OC[C@H]6O)[nH]c4cc3Cl)cc2)cc1 [Compound 30, 4′-(6-chloro-2-(((3R,3aR,6R,6aR)-6-hydroxyhexahydrofuro[3,2-b]furan-3-yl)oxy)-1H-benzo[d]imidazol-5-yl)-N-((2S,3R,4R,5R)-2,3,4,5,6-pentahydroxyhexyl)-[1,1′-biphenyl]-4-carboxamide]	0.65 nM
O[C@@H]1CO[C@H]2[C@@H]1OC[C@H]2Oc1nc2cc(-c3ccc(-c4ccc(CN5C[C@H](O)[C@@H](O)C5)cc4)cc3)c(Cl)cc2[nH]1 [Compound 64]	1.4 nM
O[C@@H]1CO[C@H]2[C@@H]1OC[C@H]2Oc1nc2cc(-c3ccc(-c4ccc(CN5CCNCC5)cc4)cc3)c(Cl)cc2[nH]1 [Compound 49, (3R,3aR,6R,6aR)-6-((6-chloro-5-(4′-(piperazin-1-ylmethyl)-[1,1′-biphenyl]-4-yl)-1H-benzo[d]imidazol-2-yl)oxy)hexahydrofuro[3,2-b]furan-3-ol]	1.76 nM
O=C(NCCCP(=O)(O)O)c1ccc(-c2ccc(-c3nc4nc(O[C@@H]5CO[C@H]6[C@@H]5OC[C@H]6O)[nH]c4cc3Cl)cc2)cc1 [Compound 14, (3-(4′-(6-chloro-2-(((3R,3aR,6R,6aR)-6-hydroxyhexahydrofuro[3,2-b]furan-3-yl)oxy)-1H-imidazo[4,5-b]pyridin-5-yl)-[1,1′-biphenyl]-4-carboxamido)propyl)phosphonic acid]	0.5 nM
OCCOCC1CN(Cc2ccc(-c3ccc(-c4cc5nc(O[C@@H]6CO[C@H]7[C@@H]6OC[C@H]7O)[nH]c5cc4Cl)cc3)cc2)C1 [Compound 50]	1.46 nM
CN(CCS(=O)(=O)O)C(=O)c1ccc(-c2ccc(-c3nc4nc(O[C@@H]5CO[C@H]6[C@@H]5OC[C@H]6O)[nH]c4cc3Cl)cc2)cc1 [Compound 8, 2-(4′-(6-chloro-2-(((3R,3aR,6R,6aR)-6-hydroxyhexahydrofuro[3,2-b]furan-3-yl)oxy)-1H-imidazo[4,5-b]pyridin-5-yl)-N-methyl-[1,1′-biphenyl]4-carboxamido)ethane-1-sulfonic acid]	1.78 nM
OCC1(CO)CN(Cc2ccc(-c3ccc(-c4cc5nc(O[C@@H]6CO[C@H]7[C@@H]6OC[C@H]7O)[nH]c5cc4Cl)cc3)cc2)C1 [Compound 66, (1-((4′-(6-chloro-2-(((3R,3aR,6R,6aR)-6-hydroxyhexahydrofuro[3,2-b]furan-3-yl)oxy)-1H-benzo[d]imidazol-5-yl)-[1,1′-biphenyl]-4-yl)methyl)azetidine-3,3-diyl)dimethanol]	0.8 nM
O=C(NCCOCCO)c1ccc(-c2ccc(-c3cc4nc(O[C@@H]5CO[C@H]6[C@@H]5OC[C@H]6O)[nH]c4cc3Cl)cc2)c(O)c1 [Compound 75, 4′-(6-chloro-2-(((3R,3aR,6R,6aR)-6-hydroxyhexahydrofuro[3,2-b]furan-3-yl)oxy)-1H-benzo[d]imidazol-5-yl)-2-hydroxy-N-(2-(2-hydroxyethoxy)ethyl)-[1,1′-biphenyl]-4-carboxamide]	0.37 nM
CC(NC[C@H](O)[C@@H](O)[C@H](O)[C@H](O)CO)c1ccc(-c2ccc(-c3nc4nc(O[C@@H]5CO[C@H]6[C@@H]5OC[C@H]6O)[nH]c4cc3Cl)cc2)cc1 (stereo partly shown) [Compound 73]	1.33 nM
CN(CCOCCO)S(=O)(=O)c1ccc(-c2ccc(-c3cc4nc(O[C@@H]5CO[C@H]6[C@@H]5OC[C@H]6O)[nH]c4cc3Cl)cc2)cc1 [Compound 72]	1.38 nM
OCC1CN(Cc2ccc(-c3ccc(-c4cc5nc(O[C@@H]6CO[C@H]7[C@@H]6OC[C@H]7O)[nH]c5cc4Cl)cc3)cc2)C1 [Compound 63, (3R,3aR,6R,6aR)-6-((6-chloro-5-(4′((3-(hydroxymethyl)azetidin-1-yl)methyl)-[1,1′-biphenyl]-4-yl)-1H-benzo[d]imidazol-2-yl)oxy)hexahydrofuro[3,2-b]furan-3-ol]	1.09 nM
